Measurements reported in the NIST ThermoML archive (doi:10.1021/je2010038).

Assay: xn = mol fraction of the nth substance listed
Details: for mass density: 101 kPa, Liquid, Vibrating tube method; for surface tension liquid-gas: Pendant drop shape

NCCO [2-aminoethan-1-ol] + O
Details | mass density [kg/m3] | surface tension liquid-gas [mN/m]
298.15 K, x1 = 0.1122 | 1010.9 | –
298.15 K, x1 = 0.1643 | 1016.3 | –
298.15 K, x1 = 0.2278 | 1021.3 | –
298.15 K, x1 = 0.3067 | 1024.8 | –
298.15 K, x1 = 0.4077 | 1026.3 | –
298.15 K, x1 = 0.5412 | 1024.7 | –
298.15 K, x1 = 0.7264 | 1020 | –
298.15 K, x1 = 1 | 1011.9 | –
303.15 K, x1 = 0.032 | – | 66.75
303.15 K, x1 = 0.069 | – | 64.74
303.15 K, x1 = 0.112 | – | 63.58
303.15 K, x1 = 0.1122 | 1008.4 | –
303.15 K, x1 = 0.164 | – | 61.74
303.15 K, x1 = 0.1643 | 1013.8 | –
303.15 K, x1 = 0.2278 | 1018.2 | –
303.15 K, x1 = 0.228 | – | 59.27
303.15 K, x1 = 0.3067 | 1021.4 | –
303.15 K, x1 = 0.307 | – | 57.42
303.15 K, x1 = 0.407 | – | 55.78
303.15 K, x1 = 0.4077 | 1022.8 | –
303.15 K, x1 = 0.541 | – | 53.43
303.15 K, x1 = 0.5412 | 1021 | –
303.15 K, x1 = 0.726 | – | 50.59
303.15 K, x1 = 0.7264 | 1016.2 | –
303.15 K, x1 = 1 | 1008 | 48.13
308.15 K, x1 = 0.1122 | 1006.2 | –
308.15 K, x1 = 0.1643 | 1011 | –
308.15 K, x1 = 0.2278 | 1015.2 | –
308.15 K, x1 = 0.3067 | 1018.2 | –
308.15 K, x1 = 0.4077 | 1019.3 | –
308.15 K, x1 = 0.5412 | 1017.3 | –
308.15 K, x1 = 0.7264 | 1012.3 | –
308.15 K, x1 = 1 | 1004 | –
313.15 K, x1 = 0.032 | – | 65.51
313.15 K, x1 = 0.069 | – | 63.29
313.15 K, x1 = 0.112 | – | 62.55
313.15 K, x1 = 0.1122 | 1003.5 | –
313.15 K, x1 = 0.164 | – | 60.27
313.15 K, x1 = 0.1643 | 1008.3 | –
313.15 K, x1 = 0.2278 | 1012.1 | –
313.15 K, x1 = 0.228 | – | 58.19
313.15 K, x1 = 0.3067 | 1014.7 | –
313.15 K, x1 = 0.307 | – | 56.35
313.15 K, x1 = 0.407 | – | 54.82
313.15 K, x1 = 0.4077 | 1015.7 | –
313.15 K, x1 = 0.541 | – | 52.41
313.15 K, x1 = 0.5412 | 1013.5 | –
313.15 K, x1 = 0.726 | – | 49.63
313.15 K, x1 = 0.7264 | 1008.5 | –
313.15 K, x1 = 1 | 1000 | 46.66
318.15 K, x1 = 0.1122 | 1001.1 | –
318.15 K, x1 = 0.1643 | 1005.3 | –
318.15 K, x1 = 0.2278 | 1009 | –
318.15 K, x1 = 0.3067 | 1011.4 | –
318.15 K, x1 = 0.4077 | 1012 | –
318.15 K, x1 = 0.5412 | 1009.7 | –
318.15 K, x1 = 0.7264 | 1004.5 | –
318.15 K, x1 = 1 | 996 | –
323.15 K, x1 = 0.032 | – | 64.31
323.15 K, x1 = 0.069 | – | 61.72
323.15 K, x1 = 0.112 | – | 61.16
323.15 K, x1 = 0.1122 | 998.1 | –
323.15 K, x1 = 0.164 | – | 58.82
323.15 K, x1 = 0.1643 | 1002.3 | –
323.15 K, x1 = 0.2278 | 1005.6 | –
323.15 K, x1 = 0.228 | – | 56.85
323.15 K, x1 = 0.3067 | 1007.8 | –
323.15 K, x1 = 0.307 | – | 55.15
323.15 K, x1 = 0.407 | – | 53.4
323.15 K, x1 = 0.4077 | 1008.3 | –
323.15 K, x1 = 0.541 | – | 51.14
323.15 K, x1 = 0.5412 | 1005.9 | –
323.15 K, x1 = 0.726 | – | 48.42
323.15 K, x1 = 0.7264 | 1000.6 | –
323.15 K, x1 = 1 | 992 | 45.58
328.15 K, x1 = 0.1122 | 995.5 | –
328.15 K, x1 = 0.1643 | 999.2 | –
328.15 K, x1 = 0.2278 | 1002.4 | –
328.15 K, x1 = 0.3067 | 1004.4 | –
328.15 K, x1 = 0.4077 | 1004.6 | –
328.15 K, x1 = 0.5412 | 1002 | –
328.15 K, x1 = 0.7264 | 996.7 | –
328.15 K, x1 = 1 | 988 | –
333.15 K, x1 = 0.032 | – | 62.46
333.15 K, x1 = 0.069 | – | 60.07
333.15 K, x1 = 0.112 | – | 59.39
333.15 K, x1 = 0.1122 | 992.3 | –
333.15 K, x1 = 0.164 | – | 57.29
333.15 K, x1 = 0.1643 | 996.1 | –
333.15 K, x1 = 0.2278 | 999 | –
333.15 K, x1 = 0.228 | – | 55.39
333.15 K, x1 = 0.3067 | 1000.7 | –
333.15 K, x1 = 0.307 | – | 53.61
333.15 K, x1 = 0.407 | – | 51.77
333.15 K, x1 = 0.541 | – | 49.62
333.15 K, x1 = 0.726 | – | 47
333.15 K, x1 = 1 | – | 44.63
